Experimental data: DBAASP
Values after ≈ are worked out from the molar mass of the structure shown. Blank lines part the entries; values can stand above or below the molecule they belong to.

Columns and labels:
Test in all cases: ≥ marks a high value that may be exact or a test limit, other limits are often not marked, values filed in µg/mL are converted to µM
[1] = test system: Enterococcus faecium BCRC 15B0132
[2] = test system: Staphylococcus aureus VRSA1
[3] = test system: Staphylococcus aureus VISA1
[4] = test system: Escherichia coli ATCC 25922
[5] = test system: Staphylococcus aureus VISA3
[6] = test system: Staphylococcus aureus VRSA2
Serratia marcescens = test system: Serratia marcescens
Staphylococcus aureus = test system: Staphylococcus aureus
Acinetobacter baumannii = test system: Acinetobacter baumannii
[7] = test system: Escherichia coli ATCC 35218
Pseudomonas aeruginosa = test system: Pseudomonas aeruginosa
Klebsiella aerogenes = test system: Klebsiella aerogenes
[8] = test system: Staphylococcus haemolyticus
[9] = test system: Staphylococcus epidermidis
Salmonella enterica = test system: Salmonella enterica
Klebsiella oxytoca = test system: Klebsiella oxytoca
[10] = test system: Staphylococcus saprophyticus
Enterobacter cloacae = test system: Enterobacter cloacae
Klebsiella pneumoniae = test system: Klebsiella pneumoniae
Proteus mirabilis = test system: Proteus mirabilis
[11] = test system: Pseudomonas aeruginosa ATCC 9027
[12] = test system: Micrococcus luteus ATCC 9341
[13] = test system: Escherichia coli ATCC 2592
[14] = test system: Staphylococcus aureus ATCC 6538
[15] = test system: Candida albicans ATCC 36232
[16] = test system: Proteus vulgaris ATCC 6380
[17] = test system: Staphylococcus aureus NBRC 12732
[18] = test system: Escherichia coli NBRC 14237
[19] = test system: Pseudomonas aeruginosa NBRC 12582
[20] = test system: Staphylococcus aureus USA 300
[21] = test system: Staphylococcus aureus M838-17
[22] = test system: Enterococcus faecium V286-17
[23] = test system: Staphylococcus aureus Newman
[24] = test system: Staphylococcus aureus USA 400
[25] = test system: Klebsiella pneumoniae E406-17
[26] = test system: Staphylococcus aureus MU50
[27] = test system: Staphylococcus aureus USA 200
Escherichia coli E423-17 = test system: Escherichia coli E423-17
[28] = test system: Acinetobacter baumannii B28-16
[29] = test system: Pseudomonas aeruginosa E411-17
[30] = test system: Staphylococcus aureus UAMS-1
[31] = test system: Pseudomonas putida NBRC 100650
[32] = test system: Candida viswanathii NBRC 10321
[33] = test system: Aspergillus oryzae NBRC 100959
[34] = test system: Staphylococcus epidermidis NBRC 12993
[35] = test system: Micrococcus luteus NBRC 3333
[36] = test system: Escherichia coli NBRC 3972

MIC [1]: ≥ 40.1 µM
MIC [2]: ≥ 40.1 µM
MIC [3]: ≥ 40.1 µM
MIC [4]: 40.1 µM (≈ 65.6 µg/mL)
MIC [5]: ≥ 40.1 µM
MIC [6]: ≥ 40.1 µM
SMILES: CC(=O)N[C@@H](C)C(=O)N[C@@H](CCCCN)C(=O)N[C@@H](CCCN=C(N)N)C(=O)N[C@@H](Cc1ccccc1)C(=O)N[C@@H](Cc1ccccc1)C(=O)NCC(=O)N[C@@H](Cc1ccc(O)cc1)C(=O)N[C@@H](CCCCN)C(=O)N[C@@H](CCCN=C(N)N)C(=O)N[C@@H](CCCCN)C(=O)N[C@@H](Cc1ccccc1)C(=O)N[C@@H](Cc1ccccc1)C(N)=O [AKRFFGYKRKFF]

MIC (Serratia marcescens): 10 µM (≈ 23.9 µg/mL)
MIC (Staphylococcus aureus): 1.8 µM (≈ 4.3 µg/mL)
MIC (Acinetobacter baumannii): 10 µM (≈ 23.9 µg/mL)
MIC [7]: 0.9 µM (≈ 2.15 µg/mL)
MIC (Pseudomonas aeruginosa): 2.8 µM (≈ 6.69 µg/mL)
MIC (Klebsiella aerogenes): 10 µM (≈ 23.9 µg/mL)
MIC [9]: 10 µM (≈ 23.9 µg/mL)
MIC (Salmonella enterica): 10 µM (≈ 23.9 µg/mL)
MIC (Klebsiella oxytoca): 3.6 µM (≈ 8.6 µg/mL)
MIC [10]: 10 µM (≈ 23.9 µg/mL)
MIC (Enterobacter cloacae): 10 µM (≈ 23.9 µg/mL)
MIC (Klebsiella pneumoniae): 1.4 µM (≈ 3.34 µg/mL)
MIC (Proteus mirabilis): 10 µM (≈ 23.9 µg/mL)
SMILES: CC[C@H](C)[C@H](NC(=O)[C@H](CCCCN)NC(=O)[C@H](C)NC(=O)[C@H](CC(C)C)NC(=O)[C@H](Cc1ccccc1)NC(=O)[C@H](CCCN=C(N)N)NC(=O)[C@H](C)NC(=O)[C@H](Cc1ccc(O)cc1)NC(=O)[C@H](CCCN=C(N)N)NC(=O)[C@H](Cc1cnc[nH]1)NC(=O)[C@H](Cc1ccccc1)NC(=O)[C@H](Cc1ccc(O)cc1)NC(=O)[C@H](CCCN=C(N)N)NC(=O)[C@H](CCC(N)=O)NC(=O)[C@@H](N)Cc1ccccc1)C(=O)N[C@@H](Cc1c[nH]c2ccccc12)C(=O)N[C@@H](CCCCN)C(=O)NCC(=O)O [FQRYFHRYARFLAKIWKG]
MIC [8]: 10 µM (≈ 23.9 µg/mL)

MIC [11]: 83.3 µM (≈ 99.9 µg/mL)
MIC (Staphylococcus aureus): > 83.3 µM
MIC [12]: ≥ 83.3 µM
MIC [13]: ≥ 83.3 µM
MIC [14]: > 83.3 µM
MIC [15]: ≥ 83.3 µM
MIC [16]: ≥ 83.3 µM
SMILES: CC(C)[C@H](NC(=O)[C@H](CCCCN)NC(=O)[C@@H]1CCCN1C(=O)[C@@H](NC(=O)[C@@H](NC(=O)[C@H](CCCCN)NC(=O)[C@@H](N)CCCCN)C(C)C)C(C)C)C(=O)N[C@@H](CCCCN)C(=O)N[C@@H](Cc1ccccc1)C(=O)N[C@@H](CCCCN)C(N)=O [KKVVPKVKFK]

MIC [17]: 3.12 µM (≈ 12.4 µg/mL)
MIC [18]: 3.12 µM (≈ 12.4 µg/mL)
MIC [19]: 3.12 µM (≈ 12.4 µg/mL)
SMILES: CC(C)C[C@H](NC(=O)[C@@H](N)CCCCN)C(=O)N[C@@H](CCCCN)C(=O)N[C@H](C(=O)N[C@@H](Cc1c[nH]c2ccccc12)C(=O)N1CCC[C@H]1C(=O)N[C@@H](CCCCN)C(=O)N[C@@H](CC(N)=O)C(=O)N[C@@H](Cc1ccc(O)cc1)C(=O)N[C@@H](Cc1c[nH]c2ccccc12)C(=O)N[C@@H](CCCN=C(N)N)C(=O)N[C@@H](CCCCN)C(=O)N[C@H](C(=O)N[C@@H](Cc1c[nH]c2ccccc12)C(=O)N[C@@H](CO)C(=O)N[C@@H](CCCCN)C(=O)N[C@@H](CCCCN)C(=O)N[C@@H](CC(N)=O)C(=O)N[C@@H](Cc1c[nH]c2ccccc12)C(=O)N[C@@H](CCCN=C(N)N)C(=O)N[C@@H](CCCCN)C(=O)N[C@@H](Cc1ccccc1)C(=O)N[C@H](C(=O)N[C@@H](CCCCN)C(=O)N[C@@H](CCCCN)C(=O)N[C@@H](Cc1ccccc1)C(=O)N[C@@H](CCCCN)C(=O)N[C@@H](Cc1cnc[nH]1)C(=O)N[C@@H](Cc1c[nH]c2ccccc12)C(=O)O)C(C)C)C(C)C)[C@@H](C)O [KLKTWPKNYWRKVWSKKNWRKFVKKFKHW]

MIC [20]: 2.83 µM (≈ 3.76 µg/mL)
MIC (Staphylococcus aureus): 4 µM (≈ 5.32 µg/mL)
MIC [21]: 3.1 µM (≈ 4.12 µg/mL)
MIC [22]: 2 µM (≈ 2.66 µg/mL)
MIC [23]: 4 µM (≈ 5.32 µg/mL)
MIC [24]: 4 µM (≈ 5.32 µg/mL)
MIC [25]: 11.3 µM (≈ 15 µg/mL)
MIC [26]: 8 µM (≈ 10.6 µg/mL)
MIC [27]: 4 µM (≈ 5.32 µg/mL)
MIC (Escherichia coli E423-17): 2 µM (≈ 2.66 µg/mL)
MIC [28]: 8 µM (≈ 10.6 µg/mL)
MIC [29]: 5.66 µM (≈ 7.52 µg/mL)
MIC (Klebsiella pneumoniae): 11.3 µM (≈ 15 µg/mL)
MIC [30]: 4 µM (≈ 5.32 µg/mL)
SMILES: CC(C)[C@H](NC(=O)[C@H](Cc1c[nH]c2ccccc12)NC(=O)[C@H](Cc1c[nH]c2ccccc12)NC(=O)[C@H](Cc1c[nH]c2ccccc12)NC(=O)[C@H](Cc1c[nH]c2ccccc12)NC(=O)[C@H](CCCN=C(N)N)NC(=O)[C@H](CCCN=C(N)N)NC(=O)[C@@H](N)CCCN=C(N)N)C(N)=O [RRRWWWWV]

MIC [31]: ≥ 319 µM
MIC [32]: ≥ 319 µM
MIC [33]: ≥ 319 µM
MIC [34]: ≥ 319 µM
MIC [35]: ≥ 319 µM
MIC [36]: ≥ 319 µM
SMILES: CC[C@H](C)[C@H](NC(=O)[C@H](CCCCN)NC(=O)[C@H](CCCN=C(N)N)NC(=O)[C@H](CCC(=O)O)NC(=O)[C@H](CCC(=O)O)NC(=O)[C@H](CCSC)NC(=O)[C@@H](NC(=O)[C@H](CC(N)=O)NC(=O)[C@@H](N)CO)C(C)C)C(=O)N[C@@H](CCCCN)C(=O)N[C@H](C(=O)N[C@@H](Cc1ccc(O)cc1)C(=O)N[C@@H](CC(C)C)C(=O)N1CCC[C@H]1C(=O)N[C@@H](CCCN=C(N)N)C(=O)N[C@@H](CCSC)C(=O)N[C@@H](CCCCN)C(=O)N[C@@H](CCSC)C(=O)N[C@@H](CCC(=O)O)C(=O)N[C@@H](CCC(=O)O)C(=O)O)C(C)C [SNVMEERKIKVYLPRMKMEE]
